# In PMC11173508, “Pharmacokinetics and Tissue Distribution of Itampolin A following Intragastric and Intravenous Administration in Rats Using Ultra-High-Performance Liquid Chromatography–Tandem Mass Spectrometry” (Molecules, 2024):
# Columns and labels:
# [1] = Tissue distribution study in rats after intragastric administration; format: in vivo, Sprague–Dawley rats; conditions: intragastric 25 mg/kg
# Protocol: Sprague–Dawley rats (250 ± 20 g) were supplied from the Experimental Animal Centre of China Medical University (Shenyang, China) and housed under unified conditions. All of the animal experiments were conducted in compliance with the Guidelines for Care and Use of Laboratory Animals of China Medical University and the protocols were approved by the Animal Ethics Committee of the institution (code number: CMU2023205). The rats were raised in a standard environment with a temperature of 24 ± 2 °C, relative humidity of 55 ± 10%, and 12 h light/12 h dark cycles. These rats were acclimatized to the environment for at least one week before the experiment, provided free access to drinking water, and fed during this period. Twenty-four SD rats, which were divided into four groups (six rats per group), received 5 mg/kg itampolin A by intravenous administration or 10, 25, and 50 mg/kg itampolin A by intragastric administration for the pharmacokinetics experiments. Twenty SD rats (five rats for each time point) received 25 mg/kg itampolin A by intragastric administration for the tissue distribution study.
# Various tissues (heart, liver, spleen, lung, kidney, brain, intestine, and stomach) were harvested and washed with ice-cold 0.9% sodium chloride solution to remove the superficial blood. After being blotted dry with filter paper, each tissue sample weighed accurately was homogenized in 0.9% sodium chloride solution (1:5, w/v). Then, 100 µL of tissue homogenate was taken and processed further like the plasma sample.
# Twenty Sprague–Dawley rats were randomly divided into four groups (five rats each) and received a single dose of 25 mg/kg of itampolin A via intragastric administration. The rats were executed by cervical dislocation at 1, 4, 8, and 12 h. Afterwards, various tissue samples, including heart, liver, spleen, lung, kidney, brain, intestine, and stomach, were collected into centrifuged tubes, and then processed with the methods described in “3.5. Sample Preparation”.
# p38α = system: p38α; set-up: method as in PMID 30642059; conditions: binding to the DFG-out conformation of p38α; cited from earlier work
# [2] = Solubility in normal saline; format: physicochemical
# [3] = Stability of itampolin A in biological samples under different storage conditions; format: physicochemical, rat; conditions: n = 5, in %
# Protocol: The stability of itampolin A was investigated by analyzing five replicates of the samples at three QC levels (3, 40, and 1280 ng/mL) under different storage conditions: (1) 4 h exposure at room temperature, (2) 24 h storage in the autosampler at 4 °C, (3) three freeze–thaw cycles, and (4) storage at −80 °C for 30 days. The samples were considered stable if the average percentage concentration deviation was within 15% of the actual value.
# [4] = measured within 12 h, mean ± SD, n = 5
smiles,measurement,setting,value
"COc1c(Br)cc(C[C@H](NC(=O)Cc2ccc(OCCCNC(C)=O)cc2)C(=O)NCCc2cc(Br)c(O)c(Br)c2)cc1Br [itampolin A, Itampolin A]",concentration in the brain,[1],lower concentration in the brain
same,distribution in the heart and spleen,[1],low distribution level and rapid elimination
same,highest concentration in intestine,[1]; [4],378.2 ± 36.8 ng/mL
same,highest concentration in kidney,[1]; [4],497.7 ± 51.9 ng/mL
same,highest concentration in liver,[1]; [4],418.8 ± 40.3 ng/mL
same,highest concentration in lung,[1]; [4],800.6 ± 79.0 ng/mL
same,highest concentration in stomach,[1]; [4],429.6 ± 27.2 ng/mL
same,phospho-p38α expression,p38α,decreasing the phospho-p38α expression
same,solubility in normal saline,[2],small
same,"Stability, Autosampler 4 °C for 24 h","[3]; brain, spiked 3 ng/mL",98.3 ± 5.8
same,"Stability, Long-Term (at −80 °C for 30 Days)","[3]; brain, spiked 3 ng/mL",94.3 ± 8.7
same,"Stability, Short-Term (at Room Temperature for 4 h)","[3]; brain, spiked 3 ng/mL",112.6 ± 3.9
same,"Stability, Three Freeze–Thaw Cycles","[3]; brain, spiked 3 ng/mL",99.5 ± 6.3
same,"Stability, Autosampler 4 °C for 24 h","[3]; brain, spiked 40 ng/mL",108.0 ± 4.0
same,"Stability, Long-Term (at −80 °C for 30 Days)","[3]; brain, spiked 40 ng/mL",95.0 ± 2.9
same,"Stability, Short-Term (at Room Temperature for 4 h)","[3]; brain, spiked 40 ng/mL",99.9 ± 10.9
same,"Stability, Three Freeze–Thaw Cycles","[3]; brain, spiked 40 ng/mL",93.7 ± 7.8
same,"Stability, Autosampler 4 °C for 24 h","[3]; brain, spiked 1280 ng/mL",96.8 ± 8.3
same,"Stability, Long-Term (at −80 °C for 30 Days)","[3]; brain, spiked 1280 ng/mL",94.6 ± 5.7
same,"Stability, Short-Term (at Room Temperature for 4 h)","[3]; brain, spiked 1280 ng/mL",99.7 ± 2.9
same,"Stability, Three Freeze–Thaw Cycles","[3]; brain, spiked 1280 ng/mL",104.3 ± 2.6
same,"Stability, Autosampler 4 °C for 24 h","[3]; heart, spiked 3 ng/mL",87.2 ± 7.2
same,"Stability, Long-Term (at −80 °C for 30 Days)","[3]; heart, spiked 3 ng/mL",103.3 ± 6.8
same,"Stability, Short-Term (at Room Temperature for 4 h)","[3]; heart, spiked 3 ng/mL",97.7 ± 3.6
same,"Stability, Three Freeze–Thaw Cycles","[3]; heart, spiked 3 ng/mL",94.3 ± 6.5
same,"Stability, Autosampler 4 °C for 24 h","[3]; heart, spiked 40 ng/mL",103.9 ± 3.5
same,"Stability, Long-Term (at −80 °C for 30 Days)","[3]; heart, spiked 40 ng/mL",97.4 ± 5.3
same,"Stability, Short-Term (at Room Temperature for 4 h)","[3]; heart, spiked 40 ng/mL",100.3 ± 2.6
same,"Stability, Three Freeze–Thaw Cycles","[3]; heart, spiked 40 ng/mL",108.3 ± 9.7
same,"Stability, Autosampler 4 °C for 24 h","[3]; heart, spiked 1280 ng/mL",94.0 ± 7.3
same,"Stability, Long-Term (at −80 °C for 30 Days)","[3]; heart, spiked 1280 ng/mL",95.3 ± 5.4
same,"Stability, Short-Term (at Room Temperature for 4 h)","[3]; heart, spiked 1280 ng/mL",89.3 ± 5.3
same,"Stability, Three Freeze–Thaw Cycles","[3]; heart, spiked 1280 ng/mL",98.9 ± 4.9
same,"Stability, Autosampler 4 °C for 24 h","[3]; intestine, spiked 3 ng/mL",99.5 ± 5.3
same,"Stability, Long-Term (at −80 °C for 30 Days)","[3]; intestine, spiked 3 ng/mL",96.3 ± 7.9
same,"Stability, Short-Term (at Room Temperature for 4 h)","[3]; intestine, spiked 3 ng/mL",100.1 ± 6.1
same,"Stability, Three Freeze–Thaw Cycles","[3]; intestine, spiked 3 ng/mL",108.7 ± 2.9
same,"Stability, Autosampler 4 °C for 24 h","[3]; intestine, spiked 40 ng/mL",106.4 ± 8.9
same,"Stability, Long-Term (at −80 °C for 30 Days)","[3]; intestine, spiked 40 ng/mL",85.9 ± 7.4
same,"Stability, Short-Term (at Room Temperature for 4 h)","[3]; intestine, spiked 40 ng/mL",101.3 ± 2.3
same,"Stability, Three Freeze–Thaw Cycles","[3]; intestine, spiked 40 ng/mL",98.3 ± 5.0
same,"Stability, Autosampler 4 °C for 24 h","[3]; intestine, spiked 1280 ng/mL",102.3 ± 4.1
same,"Stability, Long-Term (at −80 °C for 30 Days)","[3]; intestine, spiked 1280 ng/mL",89.0 ± 7.9
same,"Stability, Short-Term (at Room Temperature for 4 h)","[3]; intestine, spiked 1280 ng/mL",99.7 ± 3.3
same,"Stability, Three Freeze–Thaw Cycles","[3]; intestine, spiked 1280 ng/mL",107.5 ± 8.2
same,"Stability, Autosampler 4 °C for 24 h","[3]; kidney, spiked 3 ng/mL",93.0 ± 8.9
same,"Stability, Long-Term (at −80 °C for 30 Days)","[3]; kidney, spiked 3 ng/mL",89.1 ± 7.1
same,"Stability, Short-Term (at Room Temperature for 4 h)","[3]; kidney, spiked 3 ng/mL",98.6 ± 4.0
same,"Stability, Three Freeze–Thaw Cycles","[3]; kidney, spiked 3 ng/mL",97.1 ± 6.7
same,"Stability, Autosampler 4 °C for 24 h","[3]; kidney, spiked 40 ng/mL",100.7 ± 7.6
same,"Stability, Long-Term (at −80 °C for 30 Days)","[3]; kidney, spiked 40 ng/mL",97.3 ± 8.5
same,"Stability, Short-Term (at Room Temperature for 4 h)","[3]; kidney, spiked 40 ng/mL",106.8 ± 7.3
same,"Stability, Three Freeze–Thaw Cycles","[3]; kidney, spiked 40 ng/mL",98.4 ± 5.0
same,"Stability, Autosampler 4 °C for 24 h","[3]; kidney, spiked 1280 ng/mL",92.7 ± 4.2
same,"Stability, Long-Term (at −80 °C for 30 Days)","[3]; kidney, spiked 1280 ng/mL",110.4 ± 5.9
same,"Stability, Short-Term (at Room Temperature for 4 h)","[3]; kidney, spiked 1280 ng/mL",99.8 ± 8.1
same,"Stability, Three Freeze–Thaw Cycles","[3]; kidney, spiked 1280 ng/mL",98.8 ± 3.6
same,"Stability, Autosampler 4 °C for 24 h","[3]; liver, spiked 3 ng/mL",96.3 ± 8.2
same,"Stability, Long-Term (at −80 °C for 30 Days)","[3]; liver, spiked 3 ng/mL",93.7 ± 5.1
